# Test results reported in ChEMBL document CHEMBL5634148, “Synthesis and evaluation of novel pleuromutilin derivatives targeting the 50S ribosomal subunit for antibacterial ability” (Eur J Med Chem, 2023).
# Activity calls are given as the source filed them. No cut-off for these calls is given here.
# Columns and labels:
# [1] = Cytotoxicity against human HepG2 cells assessed as cell viability incubated for 6 hrs by CCK8 assay; format: toxicity, cell-based
# Staphylococcus aureus [2] = experiment: Antibacterial activity against methicillin-resistant Staphylococcus aureus ATCC 29213 assessed as reduction in bacterial count at 6 times MIC incubated for 24 hrs by time kill assay; format: functional
# Staphylococcus aureus [3] = experiment: Antibacterial activity against Staphylococcus aureus assessed as reduction in bacterial count at 1 to 6 times MIC incubated for 24 hrs by time kill assay; format: functional
# Staphylococcus aureus [4] = experiment: Bactericidal activity against methicillin-resistant Staphylococcus aureus ATCC 29213 incubated for 24 hrs by time kill assay; format: functional, organism-based
# Staphylococcus aureus [5] = experiment: Bactericidal activity against Staphylococcus aureus incubated for 24 hrs by time kill assay; format: functional, organism-based
# Staphylococcus aureus [6] = experiment: Antibacterial activity against methicillin-resistant Staphylococcus aureus BNCC 337371 assessed as bacterial growth inhibition incubated for 18 to 24 hrs by NCCLS based assay; format: functional; settings: time 18-24 hrs
# [7] = test system: Staphylococcus epidermidis; experiment: Antibacterial activity against methicillin-resistant Staphylococcus epidermidis ATCC 51625 assessed as bacterial growth inhibition incubated for 18 to 24 hrs by NCCLS based assay; format: functional; settings: time 18-24 hrs
# Streptococcus agalactiae = experiment: Antibacterial activity against Streptococcus agalactiae assessed as bacterial growth inhibition incubated for 18 to 24 hrs by NCCLS based assay; format: functional; settings: time 18-24 hrs
# Enterococcus faecalis = experiment: Antibacterial activity against Enterococcus faecalis assessed as bacterial growth inhibition incubated for 18 to 24 hrs by NCCLS based assay; format: functional; settings: time 18-24 hrs
# Pasteurella multocida = experiment: Antibacterial activity against Pasteurella multocida CVCC 1659 assessed as bacterial growth inhibition incubated for 18 to 24 hrs by NCCLS based assay; format: functional; settings: time 18-24 hrs
# Escherichia coli = experiment: Antibacterial activity against Escherichia coli CICC 10389 assessed as bacterial growth inhibition incubated for 18 to 24 hrs by NCCLS based assay; format: functional; settings: time 18-24 hrs
# Staphylococcus aureus [8] = experiment: Drug resistance against Staphylococcus aureus assessed as fold increase in MIC measured after 21 passages relative to control; format: functional
# Staphylococcus aureus [9] = experiment: Drug sensitivity against Staphylococcus aureus at 1/4 times MIC measured after 4 passages; format: functional, organism-based
# [10] = Cytotoxicity against human HepG2 cells assessed as cell viability at 200 uM incubated for 6 hrs by CCK8 assay relative to control; format: toxicity, cell-based; settings: read-out: Activity
# [11] = Cytotoxicity against HEK293T cells assessed as cell viability incubated for 6 hrs by CCK8 assay; format: toxicity, cell-based, HEK-293T; settings: human
# [12] = Toxicity in Wistar rat assessed as trembling at 2000 mg/kg, po measured for 24 hrs; format: organism-based; settings: in vivo
# [13] = Toxicity in Wistar rat assessed as piloerection at 2000 mg/kg, po measured for 24 hrs; format: organism-based; settings: in vivo
# [14] = Toxicity in Wistar rat assessed as physical activity at 2000 mg/kg, po measured for 24 hrs; format: organism-based; settings: in vivo
# [15] = Toxicity in Wistar rat assessed as trembling at 2000 mg/kg, po measured for 48 hrs; format: organism-based; settings: in vivo
# [16] = Toxicity in Wistar rat assessed as piloerection at 2000 mg/kg, po measured for 48 hrs; format: organism-based; settings: in vivo
# [17] = Toxicity in Wistar rat assessed as physical activity at 2000 mg/kg, po measured for 48 hrs; format: organism-based; settings: in vivo
# [18] = Toxicity in Wistar rat assessed as body weight loss at 2000 mg/kg, po measured for 14 days; format: organism-based; settings: in vivo, 336 h, time 14 day
# [19] = Toxicity in Wistar rat assessed as water consumption at 2000 mg/kg, po measured for 14 days; format: organism-based; settings: in vivo, 336 h, time 14 day
# [20] = Toxicity in Wistar rat assessed as fatality at 2000 mg/kg, po measured for 7 days; format: organism-based; settings: in vivo, 168 h, time 7 day
# [21] = Toxicity in Wistar rat assessed as absolute heart weight at 2000 mg/kg, po measured after 14 days (reference value: 0.86 +/- 0.09 g); format: organism-based; settings: in vivo, 336 h, time 14 day
# [22] = Toxicity in Wistar rat assessed as absolute liver weight at 2000 mg/kg, po measured after 14 days (reference value: 10.02 +/- 0.44 g); format: organism-based; settings: in vivo, 336 h, time 14 day
# [23] = Toxicity in Wistar rat assessed as absolute spleen weight at 2000 mg/kg, po measured after 14 days (reference value: 0.61 +/- 0.05 g); format: organism-based; settings: in vivo, 336 h, time 14 day
# [24] = Toxicity in Wistar rat assessed as absolute kidneys weight at 2000 mg/kg, po measured after 14 days (reference value: 1.77 +/- 0.16 g); format: organism-based; settings: in vivo, 336 h, time 14 day
# [25] = Toxicity in Wistar rat assessed as absolute uterus weight at 2000 mg/kg, po measured after 14 days (reference value: 0.87 +/- 0.06 g); format: organism-based; settings: in vivo, 336 h, time 14 day
# [26] = Toxicity in Wistar rat assessed as relative heart weight at 2000 mg/kg, po measured after 14 days (reference value: 0.36 +/- 0.03 %); format: organism-based; settings: in vivo, 336 h, time 14 day
# [27] = Toxicity in Wistar rat assessed as relative liver weight at 2000 mg/kg, po measured after 14 days (reference value: 4.37 +/- 0.18 %); format: organism-based; settings: in vivo, 336 h, time 14 day
# [28] = Toxicity in Wistar rat assessed as relative kidneys weight at 2000 mg/kg, po measured after 14 days (reference value: 0.91 +/- 0.18 %); format: organism-based; settings: in vivo, 336 h, time 14 day
# [29] = Toxicity in Wistar rat assessed as relative uterus weight at 2000 mg/kg, po measured after 14 days (reference value: 0.45 +/- 0.03 %); format: organism-based; settings: in vivo, 336 h, time 14 day
# [30] = Toxicity in Wistar rat assessed as hepatocyte fatty degeneration at 2000 mg/kg, po measured for 14 days by H and E staining based analysis; format: organism-based; settings: hepatocytes, 336 h, time 14 day
# [31] = Toxicity in Wistar rat assessed as proliferation of oval cells in liver at 2000 mg/kg, po measured for 14 days by H and E staining based analysis; format: organism-based; settings: in vivo, 336 h, time 14 day
# [32] = Toxicity in Wistar rat assessed as degeneration of alveolar epithelial cells in lungs at 2000 mg/kg, po measured for 14 days by H and E staining based analysis; format: organism-based; settings: in vivo, 336 h, time 14 day
# [33] = Toxicity in Wistar rat assessed as necrosis of alveolar epithelial cells in lungs at 2000 mg/kg, po measured for 14 days by H and E staining based analysis; format: organism-based; settings: in vivo, 336 h, time 14 day
# [34] = Toxicity in Wistar rat assessed as vascular congestion in lungs at 2000 mg/kg, po measured for 14 days by H and E staining based analysis; format: organism-based; settings: in vivo, 336 h, time 14 day
# Staphylococcus aureus [35] = experiment: Antibacterial activity against methicillin-resistant Staphylococcus aureus infected in neutropenic Balb/c mouse model assessed as reduction in bacterial load in lungs at 40 mg/kg, iv measured after 5 days; format: functional; settings: time 5 day
# Staphylococcus aureus [36] = experiment: Antibacterial activity against methicillin-resistant Staphylococcus aureus infected in neutropenic Balb/c mouse model assessed as reduction in bacterial load in lungs at 15 mg/kg, iv measured after 5 days; format: functional; settings: time 5 day
# Staphylococcus aureus [37] = experiment: Antibacterial activity against methicillin-resistant Staphylococcus aureus infected in neutropenic Balb/c mouse model assessed as reduction in bacterial load in kidney at 40 mg/kg, iv measured after 5 days; format: functional, organism-based; settings: time 5.0 day
# Staphylococcus aureus [38] = experiment: Antibacterial activity against methicillin-resistant Staphylococcus aureus infected in neutropenic Balb/c mouse model assessed as reduction in inflammatory cell infiltration in lungs at 40 mg/kg, iv measured after 5 days; format: functional, organism-based; settings: time 5.0 day
# Staphylococcus aureus [39] = experiment: Antibacterial activity against methicillin-resistant Staphylococcus aureus infected in neutropenic Balb/c mouse model assessed as thickening of alveolar walls in lungs at 40 mg/kg, iv measured after 5 days; format: functional, organism-based; settings: time 5.0 day
compound,measurement,setting,value
C=C[C@]1(C)C[C@@H](OC(=O)CSc2ncnc(N(C)C)n2)[C@]2(C)[C@H](C)CC[C@]3(CCC(=O)[C@H]32)[C@@H](C)[C@@H]1O,CC50 at 6 h,[1],84.6 µM
same,log(activity),Staphylococcus aureus [2],1.72
same,log(activity),Staphylococcus aureus [3],2.5
same,Activity,Staphylococcus aureus [4],Dose-Dependent Effect
same,Activity,Staphylococcus aureus [5],Dose-Dependent Effect
same,MIC,Staphylococcus aureus [6],0.031 mg/L
same,MIC,[7],0.125 mg/L
same,MIC,Streptococcus agalactiae,0.063 mg/L
same,MIC,Enterococcus faecalis,32 mg/L
same,MIC,Pasteurella multocida,≥ 64 mg/L
same,MIC,Escherichia coli,≥ 64 mg/L
same,fold change (FC),Staphylococcus aureus [8],16
same,Activity,Staphylococcus aureus [9],Active
same,"viability at 6 h, 200 µM",[10],60.2%
same,CC50 at 6 h,[11],50.1 µM
same,Activity,[12],Toxic
same,Activity,[13],Toxic
same,Activity,[14],Toxic
same,Activity,[15],Non-Toxic
same,Activity,[16],Non-Toxic
same,Activity,[17],Non-Toxic
same,Activity,[18],Toxic
same,Activity,[19],Toxic
same,Activity,[20],Non-Toxic
same,Activity,[21],0.75 g
same,Activity,[22],9.09 g
same,Activity,[23],0.43 g
same,Activity,[24],1.85 g
same,Activity,[25],0.68 g
same,Activity,[26],0.34%
same,Activity,[27],3.99%
same,Activity,[28],0.74%
same,Activity,[29],0.29%
same,Activity,[30],Toxic
same,Activity,[31],Toxic
same,Activity,[32],Toxic
same,Activity,[33],Toxic
same,Activity,[34],Toxic
same,Activity,Staphylococcus aureus [35],2.52 log10CFU/ml
same,Activity,Staphylococcus aureus [36],1.82 log10CFU/ml
same,Activity,Staphylococcus aureus [37],Active
same,Activity,Staphylococcus aureus [38],Active
same,Activity,Staphylococcus aureus [39],Active
